In patent publication US20030144346A1, “Methods and compositions for regulation of 5-alpha reductase activity” (priority 1997, published 2003):

Columns and labels:
[1] = molecular target: T1, type 1 human 5α-reductase (HRED1) (Homo sapiens, UniProt P18405); assay: Whole cell assay of 5α-reductase, type 1 isoenzyme; assay type: cell-based; parameters: expressed in transfected cells; host or cells: rat 1A cells infected with pMV7 retrovirus;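 also: intact rat 1A cells engineered to express the human type 1 5α-reductase isozyme serve as the enzyme source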
T1 sequence (P18405 1-259): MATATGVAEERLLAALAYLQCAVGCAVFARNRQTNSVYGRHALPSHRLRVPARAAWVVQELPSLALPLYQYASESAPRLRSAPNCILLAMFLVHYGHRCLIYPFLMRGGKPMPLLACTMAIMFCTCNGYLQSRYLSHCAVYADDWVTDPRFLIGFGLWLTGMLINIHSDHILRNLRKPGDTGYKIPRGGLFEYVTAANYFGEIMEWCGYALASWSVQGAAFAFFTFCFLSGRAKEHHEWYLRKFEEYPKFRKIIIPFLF

[2] = molecular target: T2, type 2 human 5α-reductase (HRED2) (Homo sapiens, UniProt P31213); assay: Whole cell assay of 5α-reductase, type 2 isoenzyme; assay type: cell-based; parameters: expressed in transfected cells; host or cells: rat 1A cells infected with pMV7 retrovirus; conditions: for inhibition at 100 µM / HRED2 % Inhibition @ 100 μM: Table 7; for IC50: Table 7, read-out: HCRED2 IC50;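 as to all read-outs here: intact rat 1A cells genetically modified to carry human type 2 5α-reductase served as the enzyme source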
T2 sequence (P31213 1-254): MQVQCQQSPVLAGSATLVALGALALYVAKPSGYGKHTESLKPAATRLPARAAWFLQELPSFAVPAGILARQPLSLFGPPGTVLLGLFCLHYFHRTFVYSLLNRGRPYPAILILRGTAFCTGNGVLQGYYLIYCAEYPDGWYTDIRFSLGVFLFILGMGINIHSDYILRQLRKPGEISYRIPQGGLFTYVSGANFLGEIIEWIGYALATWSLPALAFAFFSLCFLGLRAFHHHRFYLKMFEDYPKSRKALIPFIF

[3] = molecular target: T1, type 1 human 5α-reductase (HRED1); assay: Cell free assay of 5α-reductase, microsomes of rat 1A cells expressing type 1 isoenzyme (HRED1); assay type: biochemical; parameters: expressed in transfected cells; host or cells: rat 1A cells infected with pMV7 retrovirus; microsomes; conditions: for HRED1 % Inhibition @ 100 μM: Table 5;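 as to all read-outs here: microsomes from rat 1A cells expressing human type 1 5α-reductase, conversion of radiolabeled testosterone to dihydrotestosterone quantified by thin layer chromatography with radioanalytic scanning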
[4] = molecular target: T2, type 2 human 5α-reductase (HRED2); assay: Cell free assay of 5α-reductase, microsomes of rat 1A cells expressing type 2 isoenzyme (HRED2); assay type: biochemical; parameters: expressed in transfected cells; host or cells: rat 1A cells infected with pMV7 retrovirus; microsomes; conditions: for inhibitory activity against type 2 isoenzyme, in words: cell-free assay; for HRED2 % Inhibition @ 100 μM: Table 5;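 as to all read-outs here: labeled testosterone and its product dihydrotestosterone measured in microsomal reaction extracts via thin layer chromatography plus radioanalytic scanning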
[5] = whole cell assay, Table 7, read-out: HCRED1 IC50
[6] = read-out: HRED1 % Inhibition @ 100 μM
[7] = cell free assay, Table 4 quinones, read-out: HRED2 IC50
[8] = cell free assay, Table 5 epigallocatechin derivatives, read-out: HRED1 IC50
[9] = cell free assay, Table 5 epigallocatechin derivatives, read-out: HRED2 IC50
[10] = read-out: HRED1 % Inhibition @ 100 uM
[11] = read-out: HRED2 % Inhibition @ 100 uM
[12] = read-out: HRED2 % Inhibition @ 100 μM
[13] = cell free assay, Table 4 quinones, read-out: HRED1 IC50

CCCOC(=O)c1cc(O)c(O)c(O)c1 [Propylgallate]
inhibition at 100 µM ([1]; whole cell assay, Table 7): 5% | IC50 [1, 5]: > 100 µM | inhibition at 100 µM [2]: 0% | IC50 [2]: > 100 µM | inhibition at 100 µM ([3]; 100 uM, cell free assay, Table 2, read-out: HRED1 % Inhibition @ 100 uM): 0% | IC50 ([3]; cell free assay, Table 2 catechols, read-out: HRED1 IC50): > 100 µM | inhibition at 100 µM ([4]; 100 uM, cell free assay, Table 2, read-out: HRED2 % Inhibition @ 100 uM): 0% | IC50 ([4]; cell free assay, Table 2 catechols, read-out: HRED2 IC50): > 100 µM

CC1=CC(=O)c2ccccc2C1=O [Menadione]
inhibition at 100 µM ([1]; whole cell assay, Table 7): 82% | IC50 ([1]; HCRED1 IC50, whole cell assay, Table 7): 51 µM | inhibitory activity in the whole cell assay, type 1 isoenzyme, in words ([1]; whole cell assay): moderate activity | inhibition at 100 µM [2]: 62% | IC50 [2]: 79 µM | IC50 [3]: 6 µM | inhibitory activity against type 1 isoenzyme, in words ([3]; cell-free assay): potent cell-free inhibitors | inhibition at 100 µM [3, 6]: 77% | inhibition at 100 µM ([4]; 100 μM, cell free assay, Table 4, read-out: HRED2 % Inhibition @ 100 μM): 81% | IC50 [4, 7]: 5 µM | inhibitory activity against type 2 isoenzyme, in words [4]: potent cell-free inhibitors

Cc1c(O)cc(C(=O)OC2Cc3c(O)cc(O)cc3OC2c2cc(O)c(O)c(O)c2)cc1O (centres unmarked) [HZIV 68]
HRED1 % Inhibition @ 100 μM ([1]; whole cell assay, Table 7): 40% | IC50 [1, 5]: > 100 µM | HRED2 % Inhibition @ 100 μM [2]: 34% | IC50 [2]: > 100 µM | HRED1 % Inhibition @ 100 μM ([3]; cell free assay): 93% | IC50 [3, 8]: 29 µM | HRED2 % Inhibition @ 100 μM ([4]; 100 μM, cell free assay): 51% | IC50 [4, 9]: 99 µM

O=C(OC1Cc2c(O)cc(O)cc2OC1c1cc(O)c(O)c(O)c1)C1CCCCC1 (centres unmarked) [HZIV 144]
HRED1 % Inhibition @ 100 μM ([1]; whole cell assay, Table 7): 12% | IC50 [1, 5]: > 100 µM | HRED2 % Inhibition @ 100 μM [2]: 7% | IC50 [2]: > 100 µM | HRED1 % Inhibition @ 100 μM ([3]; cell free assay): 88% | IC50 [3, 8]: 49 µM | HRED2 % Inhibition @ 100 μM ([4]; 100 μM, cell free assay): 38% | IC50 [4, 9]: > 100 µM

CCCCCCCCCCCCCCCCCC(=O)OC1Cc2c(O)cc(O)cc2OC1c1cc(O)c(O)c(O)c1 (centres unmarked) [HZIV 148]
HRED1 % Inhibition @ 100 μM ([1]; whole cell assay, Table 7): 90% | IC50 [1, 5]: 42 µM | HRED2 % Inhibition @ 100 μM [2]: 81% | IC50 [2]: 74 µM | HRED1 % Inhibition @ 100 μM ([3]; cell free assay): 31% | IC50 [3, 8]: > 100 µM | HRED2 % Inhibition @ 100 μM ([4]; 100 μM, cell free assay): 0% | IC50 [4, 9]: > 100 µM

Oc1ccc2c(O)c3ccccc3cc2c1O [Anthrarobin]
IC50 [1]: 6 µM | inhibition at 100 µM ([1]; whole cell assay, Table 7): 91% | inhibitory activity in the whole cell assay, type 1 isoenzyme, in words ([1]; whole cell assay): active | inhibition at 100 µM [2]: 31% | IC50 [2]: > 100 µM | IC50 [3]: 4 µM | inhibition at 100 µM [3, 10]: 99% | inhibition at 100 µM [3, 6]: 99% | IC50 ([3]; read-out: HRED1 IC50, cell free assay, Table 4 quinones): 4 µM | IC50 [4]: 50 µM | inhibition at 100 µM [4, 11]: 97% | inhibition at 100 µM [4, 12]: 97% | IC50 ([4]; read-out: HRED2 IC50, cell free assay, Table 4 quinones): 50 µM

O=C(OC1Cc2c(O)cc(O)cc2OC1c1cc(O)c(O)c(O)c1)c1ccc2ccccc2c1 (centres unmarked) [HZIV 120]
HRED1 % Inhibition @ 100 μM ([1]; whole cell assay, Table 7): 97% | IC50 [1, 5]: 49 µM | HRED2 % Inhibition @ 100 μM [2]: 96% | IC50 [2]: 57 µM | HRED1 % Inhibition @ 100 μM ([3]; cell free assay): 99% | IC50 [3, 8]: 23 µM | HRED2 % Inhibition @ 100 μM ([4]; 100 μM, cell free assay): 97% | IC50 [4, 9]: 66 µM

CCCCCC=CCC=CCC=CCCCCC(=O)OC1Cc2c(O)cc(O)cc2OC1c1cc(O)c(O)c(O)c1 (centres unmarked) [HZIV 142]
HRED1 % Inhibition @ 100 μM ([1]; whole cell assay, Table 7): 99% | IC50 [1, 5]: 8 µM | HRED2 % Inhibition @ 100 μM [2]: 98% | IC50 [2]: 14 µM | HRED1 % Inhibition @ 100 μM ([3]; cell free assay): 97% | IC50 [3, 8]: 25 µM | HRED2 % Inhibition @ 100 μM ([4]; 100 μM, cell free assay): 93% | IC50 [4, 9]: 63 µM

O=C1c2ccccc2C(=O)c2c(O)c(O)cc(O)c21 [Purpurin]
inhibition at 100 µM ([1]; whole cell assay, Table 7): 47% | IC50 [1, 5]: > 100 µM | inhibition at 100 µM [2]: 7% | IC50 [2]: > 100 µM | IC50 [3, 13]: 2 µM | IC50 [4, 7]: > 100 µM

O=C1c2ccccc2C(=O)c2c1ccc(O)c2O [Alizarin]
inhibition at 100 µM ([1]; whole cell assay, Table 7): 75% | inhibitory activity in the whole cell assay, type 1 isoenzyme, in words ([1]; whole cell assay): very effective inhibitor | IC50 [1, 5]: 6 µM | inhibition at 100 µM [2]: 27% | IC50 [2]: > 100 µM | IC50 [3, 13]: 3 µM | inhibitory activity against type 1 isoenzyme, in words ([3]; cell-free assay): very effective inhibitor | inhibition at 100 µM [3, 6]: 95% | inhibition at 100 µM [4, 12]: 54%

CN(C)c1ccc(C(=O)OC2Cc3c(O)cc(O)cc3OC2c2cc(O)c(O)c(O)c2)cc1 (centres unmarked) [HZIV 92]
HRED1 % Inhibition @ 100 μM ([1]; whole cell assay, Table 7): 94% | IC50 [1, 5]: 64 µM | HRED2 % Inhibition @ 100 μM [2]: 62% | IC50 [2]: 80 µM | HRED1 % Inhibition @ 100 μM ([3]; cell free assay): 98% | IC50 [3, 8]: 23 µM | HRED2 % Inhibition @ 100 μM ([4]; 100 μM, cell free assay): 45% | IC50 [4, 9]: > 100 µM

O=C1c2ccccc2C(=O)c2c1cc(S(=O)(=O)[O-])c(O)c2O.[Na+] [Alizarin Red 5, Alizarin Red S]
HRED1 % Inhibition @ 100 μM ([1]; whole cell assay, Table 7): 28% | IC50 [2]: > 100 µM | IC50 [4, 7]: > 100 µM

O=c1c(O)c(-c2ccc(O)c(O)c2)oc2cc(O)cc(O)c12 [Quercitin]
inhibition at 100 µM ([1]; whole cell assay, Table 7): 15% | IC50 [1, 5]: > 100 µM | inhibition at 100 µM [2]: 29% | IC50 [2]: > 100 µM | inhibition at 100 µM ([3]; 100 uM, cell free assay, Table 1, read-out: HRED1 % Inhibition @ 100 uM): 96% | IC50 ([3]; cell free assay, Table 1 flavanoids, read-out: HRED1 IC50): 23 µM | IC50 ([3]; cell-free assay, read-out: IC50, type 1 isoenzyme): < 100 µM | inhibition at 100 µM ([4]; 100 uM, cell free assay, Table 1, read-out: HRED2 % Inhibition @ 100 uM): 14% | IC50 ([4]; cell free assay, Table 1 flavanoids, read-out: HRED2 IC50): > 100 µM

COc1cc(CCC(=O)CC(=O)CCc2ccc(O)c(OC)c2)ccc1O [Tetrahydrocurcumin]
inhibition at 100 µM ([1]; whole cell assay, Table 7): 81% | IC50 [1, 5]: 36 µM | inhibition at 100 µM [2]: 92% | IC50 [2]: 7 µM | IC50 ([3]; cell free assay, Table 3 curcumin and related compounds, read-out: HRED1 IC50): 80 µM | inhibition at 100 µM [3, 10]: 56% | inhibition at 100 µM [4, 11]: 73% | IC50 ([4]; read-out: HRED2 IC50): 29 µM

Cc1cc2c(C(C)C)c(O)c(O)c(C=O)c2c(O)c1-c1c(C)cc2c(C(C)C)c(O)c(O)c(C=O)c2c1O [Gossypol]
IC50 [1]: 7 µM | inhibition at 100 µM ([1]; whole cell assay, Table 7): 100% | inhibitory activity in the whole cell assay, type 1 isoenzyme, in words ([1]; whole cell assay): active | inhibition at 100 µM [2]: 99% | IC50 [2]: 6 µM | IC50 [3]: 7 µM | inhibition at 100 µM [3, 10]: 99% | IC50 [4]: 21 µM | inhibition at 100 µM [4, 11]: 99%

O=c1c(-c2ccc(O)cc2)coc2cc(O)ccc12 [Daidzein]
HRED1 % Inhibition @ 100 μM ([1]; whole cell assay, Table 7): 9% | inhibitory activity in the whole cell assay, type 2 isoenzyme, in words [2]: significant inhibitory activity | inhibitory activity against type 2 isoenzyme, in words [4]: effective inhibitors

CCCCC/C=C\C/C=C\C/C=C\CCCCC(=O)O[C@H]1CC[C@@]2(C)C(=CC[C@H]3[C@@H]4CC[C@H]([C@H](C)CCCC(C)C)[C@@]4(C)CC[C@@H]32)C1 [Gamma-Linolenic Acid Chol Ester]
HRED1 % Inhibition @ 100 μM ([1]; whole cell assay, Table 7): 12% | IC50 [1, 5]: > 100 µM | HRED2 % Inhibition @ 100 μM [2]: 11% | IC50 [2]: > 100 µM
